Measurements: patent US20090099214A1, “Organic Compounds” (Novartis AG, priority 2006, published 2009)
Counter-ions that a name gives are not always drawn.

What follows are molecules tested against adenosine A2a receptor (Homo sapiens, UniProt P29274) (assay: adenosine A2a receptor agonist test (method of Murphree et al / Hannon et al)).
Assay type: binding
Description: Compounds of formula I and their pharmaceutically acceptable salts are useful as pharmaceuticals. In particular, they activate the adenosine A2a receptor activation, i.e. they act as A2a receptor agonists.
For example, the compounds of Examples 7, 8, 17, 19, and 38 have Ki values of 0.003, 0.002, 0.011, 0.008, and 0.007 μM respectively.

adenosine A2a receptor, sequence (P29274 whole entry): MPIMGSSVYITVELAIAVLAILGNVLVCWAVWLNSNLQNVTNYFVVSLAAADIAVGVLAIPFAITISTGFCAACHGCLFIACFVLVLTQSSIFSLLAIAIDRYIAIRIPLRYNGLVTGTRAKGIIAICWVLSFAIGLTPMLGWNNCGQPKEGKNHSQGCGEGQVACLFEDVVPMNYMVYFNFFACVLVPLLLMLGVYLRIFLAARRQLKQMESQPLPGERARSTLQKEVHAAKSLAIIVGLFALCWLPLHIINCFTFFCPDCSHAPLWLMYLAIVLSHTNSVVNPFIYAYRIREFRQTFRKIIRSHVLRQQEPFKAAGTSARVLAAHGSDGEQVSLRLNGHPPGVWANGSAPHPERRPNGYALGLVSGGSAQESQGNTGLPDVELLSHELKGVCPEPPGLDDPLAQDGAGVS

Point of comparison: `CCC(=O)N[C@H]1C[C@@H](n2cnc3c(NCC(c4ccc(OC)cc4)c4ccc(OC)cc4)nc(N4CC[C@@H](NC(=O)N[C@@H]5CCNC5)C4)nc32)[C@H](O)[C@@H]1O` [Example 7, N-((1S,2R,3S,4R)-4-{6-[2,2-Bis-(4-methoxy-phenyl)-ethylamino]-2-[(R)-3-((R)-3-pyrrolidin-3-ylureido)-pyrrolidin-1-yl]-purin-9-yl}-2,3-dihydroxy-cyclopentyl)-propionamide trifluoroacetate], Ki 3 nM. Against it:
- CCC(=O)N[C@H]1C[C@@H](n2cnc3c(NCC(c4ccccc4)c4ccc(F)cc4)nc(N4CC[C@@H](NC(=O)N[C@@H]5CCNC5)C4)nc32)[C@H](O)[C@@H]1O (stereo partly drawn) [Example 8, N-((1S,2R,3S,4R)-4-{6-[2-(4-fluoro-phenyl)-2-phenyl-ethylamino]-2-[(R)-3-((R)-3-pyrrolidin-3-ylureido)-pyrrolidin-1-yl]-purin-9-yl}-2,3-dihydroxy-cyclopentyl)-propionamide trifluoroacetate] — 1.5-fold lower, 2 nM
- CCC(=O)N[C@H]1C[C@@H](n2cnc3c(NCCc4ccccc4-c4ccccc4)nc(N4CC[C@@H](NC(=O)N[C@@H]5CCNC5)C4)nc32)[C@H](O)[C@@H]1O [Example 17, N-((1S,2R,3S,4R)-4-{6-(2-biphenyl-2-yl-ethylamino)-2-[(R)-3-((R)-3-pyrrolidin-3-ylureido)-pyrrolidin-1-yl]-purin-9-yl}-2,3-dihydroxy-cyclopentyl)-propionamide trifluoroacetate] — 3.7-fold higher, 11 nM
- CCC(=O)N[C@H]1C[C@@H](n2cnc3c(NCC(c4ccc(OC)c(OC)c4)c4ccc(OC)c(OC)c4)nc(N4CC[C@@H](NC(=O)N[C@@H]5CCNC5)C4)nc32)[C@H](O)[C@@H]1O [Example 19, N-((1S,2R,3S,4R)-4-{6-[2,2-bis-(3,4-dimethoxy-phenyl)-ethylamino]-2-[(R)-3-((R)-3-pyrrolidin-3-ylureido)-pyrrolidin-1-yl]-purin-9-yl}-2,3-dihydroxy-cyclopentyl)-propionamide trifluoroacetate] — 2.7-fold higher, 8 nM
- CCC(=O)N[C@H]1C[C@@H](n2cnc3c(NCC(c4ccccc4)c4ccc(F)cc4)nc(NC4CCC(N)CC4)nc32)[C@H](O)[C@@H]1O (stereo partly drawn) [Example 38, N-((1S,2R,3S,4R)-4-{2-(4-Amino-cyclohexylamino)-6-[2-(4-fluoro-phenyl)-2-phenyl-ethylamino]-purin-9-yl}-2,3-dihydroxy-cyclopentyl)-propionamide trifluoroacetate] — 2.3-fold higher, 7 nM
